From US5593970A, “Heterocyclic anthracycline analogs” (priority 1994, dated 1997) come the findings set out here.

Where a name gives a salt, the structure may show the parent alone.

Assay [1] concerns LS180. The assay can be described thus: Soft agar colony formation disk diffusion assay. The class given is cell-based, human. The method, boiled down: (§1)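 Plate cells in an upper 0.4% agar layer over a 0.8% agar base, then add compound on a 6.5 mm disk one-third from the dish edge. Incubate 10–20 days at 37 °C, 5% CO2. Measure the colony-free zone around the disk with a calibrated micrometer.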

For assay [2], the system named is MCF7/ADR. In words: Soft agar colony formation disk diffusion assay. The format is cell-based, human. The method, boiled down: as §1
In assay [3] the test system is MCF7. The assay can be described thus: Soft agar colony formation disk diffusion assay. The format is cell-based, human. In outline:
as §1

The subject of assay [4] is HT29. The assay can be described thus: Soft agar colony formation disk diffusion assay. The format is cell-based, human. The method, boiled down:
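Cells were plated at 10^4–2×10^5 cells per dish in a 0.4% Noble agar upper layer over 0.8% agar. The compound (DMSO/water solution) was applied on a 6.5 mm filter disk, and plates were incubated at 37 °C, 5% CO2 for 10–20 days. Anti-clonogenic activity was measured microscopically as the inhibition zone from the disk edge to the nearest colonies (>50 cells).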

In assay [5] the test system is SKOV3. The assay can be described thus: Microculture tetrazolium assay. The format is cell-based. As to conditions: Homo sapiens, SK-OV-3, SKOV3; read-out: IC50.
Assay [6] relates to SKVLB. In words: Microculture tetrazolium assay. The format is cell-based. The note with it: for IC50: SKVLB, read-out: IC50; for VLB/OV3: IC50 ratio SKVLB/SKOV3.
The subject of assay [7] is T47D. In words: Microculture tetrazolium assay. The format is cell-based. The note with it: Homo sapiens, read-out: IC50.
For assay [8], the system named is HT29. In words: Microculture tetrazolium assay. The class given is cell-based. The note with it: Homo sapiens, HT-29, HT29; read-out: IC50.

Take `CCOC(=O)[C@@H]1CC2=C(C(=O)c3c(c(O)c4ccccc4c3OC(C)=O)C2=O)[C@@H](O)O1` (mixture of isomers) [BCH-658, (1S,3S) and (1R,3R) Ethyl[11-acetoxy-1,6-dihydroxy-5,12-dioxo-3,4,5,12-tetrahydroanthraceno (2,3-c)pyran-3-yl]formate]: the zone of inhibition in assay [1] (10 μg/DISK) is reported as 48.8 ± 34.5 Zone Units; in assay [1] (100 μg/DISK) it was 164.7 ± 25.8 Zone Units; in assay [2] (10 μg/DISK), 0 Zone Units; in assay [2] (100 μg/DISK), 0 Zone Units; in assay [3] (10 μg/DISK), 0 Zone Units; in assay [4] (10 μg/DISK) it was 0 Zone Units. Besides, the zone of inhibition in assay [4] (100 μg/DISK) amounted to 0 Zone Units. The IC50 is 11.2 µM in assay [5], over 100 µM in assay [6], over 100 µM in assay [7] and over 100 µM in assay [8].
Consider `CCOC(=O)[C@@H]1CC2=C(C(=O)c3cc4ccccc4c(OC(C)=O)c3C2=O)[C@@H](O)O1` (mixture of isomers) [BCH-660, (1S,3S) and (1R,3R)-Ethyl-[6-acetoxy-1-hydroxy-5,12-dioxo-3,4,5,12-tetrahydroanthraceno (2,3-c)pyran-3-yl]formate], for which the zone of inhibition in assay [1] (10 μg/DISK) was 15.0 ± 4.2 Zone Units; in assay [1] (100 μg/DISK), 76.0 ± 4.2 Zone Units; in assay [2] (10 μg/DISK), 9.1 ± 4.3 Zone Units; in assay [2] (100 μg/DISK), 109.8 ± 10.0 Zone Units; in assay [3] (10 μg/DISK), 27.4 ± 4.3 Zone Units; in assay [3] (100 μg/DISK), 82.3 ± 12.9 Zone Units. Also, the zone of inhibition is reported as 27.4 ± 4.3 Zone Units in assay [4] (10 μg/DISK) and 103.7 ± 2.1 Zone Units in assay [4] (100 μg/DISK). The IC50 turned out to be 5.34 µM in assay [5], 6.49 µM in assay [6], 6.67 µM in assay [7] and 2.92 µM in assay [8]. In addition, the VLB/OV3 in assay [6] is listed as 1.22.
Turning to `COC(=O)[C@@H]1CC2=C(C(=O)c3c(c(OC)c4ccccc4c3O)C2=O)[C@@H](O[C@H]2C[C@H](NC(=O)C(F)(F)F)[C@H](O)[C@H](C)O2)O1` (mixture of isomers) [BCH-674, (1'S,1S,3R) and 1'S,1R,3S) Methyl(11-hydroxy-6-methoxy-1-[2',3',6'-trideoxy-3-trifluoroacetamido-4'-hydroxy-L-lyxohexopyranose]-5,12-dioxo-3,4,5,12-tetrahydroanthra-ceno[2,3-c]pyran-3-yl) formate], the zone of inhibition in assay [1] (10 μg/DISK) came out at 0 Zone Units; in assay [1] (100 μg/DISK), 67.1 ± 8.6 Zone Units; in assay [2] (10 μg/DISK) it was 0 Zone Units; in assay [2] (100 μg/DISK), 339.6 ± 4.3 Zone Units; in assay [3] (10 μg/DISK), 0 Zone Units; in assay [3] (100 μg/DISK), 76.2 ± 21.6 Zone Units. Moreover, the results for the zone of inhibition in assay [4] (10 μg/DISK) and in assay [4] (100 μg/DISK) were 122.2 ± 80.6 Zone Units and 36.6 ± 17.2 Zone Units, respectively. Moreover, the IC50 in assay [5] was 7.46 µM; in assay [6] it was 6.81 µM; in assay [7], 4.17 µM; in assay [8] it was 6.63 µM. In assay [6], the VLB/OV3 turned out to be 0.91.
For `COC(=O)[C@H]1CC2=C(C(=O)c3c(c(OC)c4ccccc4c3O)C2=O)[C@H](O[C@H]2C[C@H](NC(=O)C(F)(F)F)[C@H](O)[C@H](C)O2)O1` (mixture of isomers) [BCH-675, (1'S,1S,3R) and 1'S,1R,3S) Methyl(11-hydroxy-6-methoxy-1-[2',3',6'-trideoxy-3-trifluoroacetamido-4'-hydroxy-L-lyxohexopyranose]-5,12-dioxo-3,4,5,12-tetrahydroanthra-ceno[2,3-c]pyran-3-yl) formate], the zone of inhibition in assay [1] (10 μg/DISK) amounted to 0 Zone Units; in assay [1] (100 μg/DISK), 148.4 ± 31.3 Zone Units; in assay [2] (10 μg/DISK), 0 Zone Units; in assay [2] (100 μg/DISK), 26.3 ± 14.0 Zone Units; in assay [3] (10 μg/DISK), 0 Zone Units; in assay [3] (100 μg/DISK), 30.5 ± 10.5 Zone Units. The zone of inhibition in assay [4] (10 μg/DISK) and in assay [4] (100 μg/DISK) was 0 Zone Units throughout. Also, the IC50 worked out at 9.16 µM in assay [5], 3.97 µM in assay [6], 2.8 µM in assay [7] and 5.26 µM in assay [8]. Moreover, the VLB/OV3 in assay [6] is listed as 0.43.
For the molecule `COC(=O)[C@H]1CC2=C(C(=O)c3c(cc4ccccc4c3O)C2=O)[C@H](O[C@H]2C[C@H](NC(=O)C(F)(F)F)[C@H](O)[C@H](C)O2)O1` (mixture of isomers) [BCH-692, (1'S,1S,3R) and (1'S,1R,3S) Methyl[11-hydroxy-1-(2',3',6'-trideoxy-3'-trifluoroacetamido-4'-hydroxy-L-lyxohexopyranose)-5,12-dioxo-3,4,5,12-tetrahydro-anthraceno[2,3-c]pyran-3-yl]formate], the zone of inhibition in assay [1] (10 μg/DISK) worked out at 130.0 ± 12.5 Zone Units; in assay [1] (100 μg/DISK), 250.0 ± 8.4 Zone Units; in assay [2] (10 μg/DISK) it was 122.0 ± 10.0 Zone Units; in assay [2] (100 μg/DISK) it was 237.9 ± 8.6 Zone Units; in assay [3] (10 μg/DISK), 131.0 ± 12.7 Zone Units; in assay [3] (100 μg/DISK), 289.5 ± 22.0 Zone Units. Further, the zone of inhibition in assay [4] (10 μg/DISK) stood at 105.0 ± 5.0 Zone Units. Moreover, the “cross resistance with adriamycin, MCF7/ADR vs MCF7” value in assay [2] is “lack of cross resistance with adriamycin”. Besides, the IC50 in assay [5] was found to be 2.84 µM; in assay [6] it was 1.77 µM; in assay [7] it was 71 µM; in assay [8], 2.18 µM. In assay [6], the VLB/OV3 is 0.62.
With `CCOC(=O)C1CC2=C(CO1)C(=O)c1c(cc3ccccc3c1O)C2=O` (stereo not shown) [BCH-651, Ethyl(6 and 11 hydroxy-5,12-dioxo-3,4,5,12-tetrahydro-anthraceno[2,3-c]pyran-3-yl)]formate], the zone of inhibition in assay [1] (10 μg/DISK) stood at 0 Zone Units; in assay [1] (100 μg/DISK), 76.2 ± 21.5 Zone Units; in assay [2] (10 μg/DISK), 10.0 ± 5.0 Zone Units; in assay [2] (100 μg/DISK), 131.1 ± 30.1 Zone Units; in assay [3] (100 μg/DISK) it was 115.9 ± 8.6 Zone Units; in assay [4] (10 μg/DISK), 0 Zone Units. For the same molecule, the zone of inhibition in assay [4] (100 μg/DISK) is 61.0 ± 1.0 Zone Units. Further, the IC50 in assay [5] is 20.8 µM; in assay [6] it was 23.6 µM; in assay [7], 36.3 µM; in assay [8], 17 µM. Besides, the VLB/OV3 in assay [6] was determined as 1.13.
As for `CCOC(=O)C1CC2=C(CO1)C(=O)c1c(c(O)c3ccccc3c1OC(C)=O)C2=O` (stereo not shown) [BCH-654, Ethyl[11-acetoxy-6-hydroxy-5,12-dioxo-3,4,5,12-tetrahydroanthraceno(2,3-c)pyran-3-yl]formate], the zone of inhibition in assay [1] (10 μg/DISK) stood at 24.4 ± 8.6 Zone Units; in assay [1] (100 μg/DISK), 158.5 ± 9.1 Zone Units; in assay [2] (10 μg/DISK) it was 0 Zone Units; in assay [2] (100 μg/DISK), 155.6 ± 12.7 Zone Units; in assay [3] (10 μg/DISK), 0 Zone Units; in assay [3] (100 μg/DISK), 115.9 ± 8.6 Zone Units. The figures for the zone of inhibition in assay [4] (10 μg/DISK) and in assay [4] (100 μg/DISK) were 0 Zone Units and 106.5 ± 21.9 Zone Units, respectively. In addition, the IC50 is 98.4 µM in assay [5], 57.1 µM in assay [6], over 100 µM in assay [7] and 47.3 µM in assay [8]. The VLB/OV3 in assay [6] is 0.58.
